Reference: patent US8293751B2, “1,2,3-trisubstituted aryl and heteroaryl derivatives as modulators of metabolism and the prophylaxis and treatment of disorders related thereto such as diabetes and hyperglycemia” (Arena Pharmaceuticals, Inc., priority 2003, dated 2012)
“Also recorded” adds a separate entry of the source.

Key:
[1] = system: db mice (C57BL/KsOlahsd-Leprdb, diabetic); experiment: Acute response of db mice to RUP3 agonist (blood glucose); format: in vivo; conditions: male db mice; 60 mg/kg, oral gavage; FIG. 5B
Experimental: B. […] Male db mice (C57BL/KsOlahsd-Leprdb, diabetic, Harlan) at age of 10 weeks were randomly grouped (n=6) to receive vehicle (oral gavage), Compound B70 (60 mg/kg, oral gavage), or Ex-4 (1 μg/kg, intraperitoneally). After compound administration, food was removed and blood glucose levels were determined at indicated times as shown in FIG. 5B. Reduction in blood glucose at each time point was expressed as percentage of original glucose levels, averaged from six animals for each group.

RUP3 = target: T1, RUP3 (Homo sapiens, UniProt Q8TDV5); experiment: 96-Well Cyclic AMP Membrane Assay for RUP3 (Membrane Cyclase Assay); format: biochemical; conditions: RUP3 membranes, cAMP Flashplate
T1 construct: seen in the listing only (N); seen in the listing only (C); expressed in transfected cells
T1 sequence (Q8TDV5 with tags, fused parts or gaps): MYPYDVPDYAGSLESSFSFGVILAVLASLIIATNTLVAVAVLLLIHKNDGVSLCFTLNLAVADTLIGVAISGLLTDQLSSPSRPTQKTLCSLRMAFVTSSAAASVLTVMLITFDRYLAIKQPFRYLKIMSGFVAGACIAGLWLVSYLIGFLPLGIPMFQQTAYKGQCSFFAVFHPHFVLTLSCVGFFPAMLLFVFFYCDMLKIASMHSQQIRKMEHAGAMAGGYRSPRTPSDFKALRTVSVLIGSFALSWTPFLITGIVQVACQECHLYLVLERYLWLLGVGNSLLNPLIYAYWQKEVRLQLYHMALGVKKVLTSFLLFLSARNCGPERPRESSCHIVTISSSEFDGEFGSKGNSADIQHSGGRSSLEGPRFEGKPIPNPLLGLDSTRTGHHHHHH
Experimental: 96-Well Cyclic AMP Membrane Assay for RUP3
Binding Buffer—filter through […] Nalgene filter and keep in refrigerator. All buffers and membranes should be kept cold (in ice bucket) while performing assay. • 20 mM Hepes, pH7.4 • 1 mM MgCl2 • 100 mM NaCl • 2× Regeneration Buffer (make in binding buffer): • 20 mM Phosphocreatine (1.02 gm/200 ml binding buffer) • 20 units Creatine phosphokinase (4 mg/200 ml) • 20 uM GTP (make up 10.46 mg/ml in binding buffer and add 200 ul/200 ml) • 0.2 mM ATP (22.04 mg/200 ml) • […] IBMX (44.4 mg IBMX dissolved in 1 ml 100% DMSO first and then add the entire amount to 200 ml of buffer).
Regeneration buffer can be aliquotted into 40-45 ml portions (in 50 ml sterile tubes) and kept frozen for up to 2 months. Simply put the tube in a beaker with room temperature water to thaw out the regeneration buffer on the day of the assay. […]
IC50s or EC50s are done in triplicate. […] The membranes are kept in ice all the time, and a polytron (Brinkmann polytron, model #PT-3100) is used (setting 6-7, for 15-20 seconds) to obtain a homogeneous membrane suspension.) Protein concentration is determined by Bradford protein assay kit using instructions given in the kit, using the standard supplied with the kit as a reference. […]

C57bl/6N mice = experiment: Oral glucose tolerance test (oGTT) in mice; format: in vivo; conditions: male C57bl/6N mice fasted 18 hours; p.o. 30 min before oral dextrose 5 g/kg; FIG. 5A
Experimental: A. Oral Glucose Tolerance Test (oGTT) (FIG. 5A).
Male C57bl/6N mice at age of 8 weeks were fasted for 18 hours and randomly grouped (n=11) to receive a RUP3 agonist (Compound B70) at indicated doses, or with control extendin-4 (ex-4, 1 μg/kg), a GLP-1 peptide analog known to stimulate glucose-dependent insulin secretion. Compound B70 was delivered orally via a gavage needle (p.o. volume at 100 μl). Control Ex-4 was delivered intraperitoneally. Thirty minutes after administration of test compound and control ex4, mice were administered orally with dextrose at 5 g/kg dose. Levels of blood glucose were determined at the indicated time points using Glucometer Elite XL (Bayer).

O=[N+]([O-])c1c(Nc2ccc(-n3cncn3)cc2)ncnc1N1CCC(Sc2ccccn2)CC1 [Compound B70, {5-Nitro-6-[4-(pyridin-2-ylsulfanyl)-piperidin-1-yl]-pyrimidin-4-yl}-(4-[1,2,4]triazol-1-yl-phenyl)-amine]
blood glucose levels compared to vehicle control [1]: significantly reduces glucose levels compared to vehicle control
IC50 (RUP3): 129 nM
blood glucose after glucose challenge (oGTT) (C57bl/6N mice): lowered blood glucose in a dose-dependent manner; also recorded: in a dose-dependent manner on the lowering of blood glucose after glucose challenge
